Measurements reported in patent publication US10189782B2, “Derivatives of indole for the treatment of cancer, viral infections and lung diseases” (BIOKINESIS, priority 2012, dated 2019).
Where a name gives a salt, the structure may show the parent alone. Read-outs that look alike come from different tables or passages of the source.

Biological target: T1, Human recombinant MKlp2 motor domain1-519, His tagged (Homo sapiens, UniProt O95235)
T1 construct: Human recombinant MKlp2 motor domain1-519, His tagged; His; purchased Cytoskeleton MP05
T1 sequence (O95235 1-519): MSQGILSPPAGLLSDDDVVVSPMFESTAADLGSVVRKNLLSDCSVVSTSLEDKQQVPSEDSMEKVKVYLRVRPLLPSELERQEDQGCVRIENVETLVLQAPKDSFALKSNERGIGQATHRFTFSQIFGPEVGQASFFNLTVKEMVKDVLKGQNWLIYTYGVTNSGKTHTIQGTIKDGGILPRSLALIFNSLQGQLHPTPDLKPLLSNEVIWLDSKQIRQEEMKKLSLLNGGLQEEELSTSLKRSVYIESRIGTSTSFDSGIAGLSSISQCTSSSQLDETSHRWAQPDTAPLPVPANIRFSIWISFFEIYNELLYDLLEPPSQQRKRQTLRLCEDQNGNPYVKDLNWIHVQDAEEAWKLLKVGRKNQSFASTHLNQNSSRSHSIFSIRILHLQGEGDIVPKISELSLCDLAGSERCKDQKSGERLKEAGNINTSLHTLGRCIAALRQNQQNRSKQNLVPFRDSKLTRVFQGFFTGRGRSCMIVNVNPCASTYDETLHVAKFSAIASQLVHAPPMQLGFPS
Experiment: Microtubule stimulated ATPase activity of the MKlp2 motor domain (Kinesin ELIPA Assay Kit)
Type: biochemical
Settings: Table 3, 22° C.
Experimental: Evaluation of Inhibitory Effects on the Microtubule Stimulated ATPase Activity of the MKlp2 Motor Domain.
MKlp2 ATPase activity was measured by monitoring real time free phosphate generation using the Kinesin ELIPA Assay Kit. The assay is based upon an absorbance shift (330 nm-360 nm) that occurs when 2-amino-6-mercapto-7-methylpurine ribonucleoside (MESG) is catalytically converted to 2-amino-6-mercapto-7-methylpurine in the presence of inorganic phosphate (Pi). One molecule of Pi will yield one molecule of 2-amino-6-mercapto-7-methylpurine in an essentially irreversible reaction.
All experiments were performed at 22° C.
Condition 1, compound preparation.
The compounds were dissolved in DMSO at 30× the maximum concentration to be tested. […] DMSO solutions were pipetted directly into each well.
Condition 2, reaction's “motor mix”.
The following were mixed sequentially in the specified order at RT to obtain the “motor mix”.
20 mL: 15 mM Pipes-NaOH pH 7.0, 10 mM MgCl2, 30 μM Tx (Buffer 1).
10 mL: 5× MSEG (ELIPA 1 reagent, Cat. # BK051).
10 mL: 2.5 mg/mL porcine brain microtubules (3×10 mg Cat. # MT002-XL resuspended in 12 mL of Buffer 1).
0.5 mL: 100×PNP (ELIPA 2 reagent, cat. # BK051).
Condition 3, reaction initiation.
The motor mix was pipetted into each well to obtain 80% of total volume. The reaction was initiated by adding a 20% of total volume of 5 mM ATP into each well.
The reactions were measured in a SpectraMax M2 (Molecular Devices) set in kinetic mode and 360 nm absorbance wavelength. The start protocol was 5 second rapid circular mixing, 21 readings, 30 seconds apart.

Row | IC50 (read-out: MKIp2 IC50) | Structure (SMILES) | IC50 (MKIp2 IC50 (μM))
1 | 0.3 µM | N#C/C(=C\c1cnccc1Oc1ccccc1)c1c[nH]c2ccc(Cl)cc12 [Example 10, (Z)-2-(5-chloro-1H-indol-3-yl)-3-(4-phenoxypyridin-3-yl)acrylonitrile] | 
2 | 0.4 µM | N#C/C(=C\c1cnccc1-c1ccc(C(F)(F)F)cc1)c1c[nH]c2ccc(Br)cc12 [Example 25, (Z)-2-(5-bromo-1H-indol-3-yl)-3-(4-(4-(trifluoromethyl)phenyl)pyridin-3-yl)acrylonitrile] | 
3 | 0.3 µM | CN(C)CCSc1ccncc1/C=C(\C#N)c1c[nH]c2ccc(Br)cc12 [Example 36] | 
4 | 0.3 µM | N#C/C(=C\c1cnccc1Sc1ccccc1)c1c[nH]c2ccc(Br)cc12 [Example 19, (Z)-2-(5-bromo-1H-indol-3-yl)-3-(4-(phenylthio)pyridin-3-yl)acrylonitrile] | 
5 | 0.2 µM | COc1ccc(C#N)cc1/C=C(\C#N)c1c[nH]c2ccc(Cl)cc12 [Example 40, (Z)-3-(2-(5-chloro-1H-indol-3-yl)-2-cyanovinyl)-4-methoxybenzonitrile] | 
6 | 0.3 µM | N#C/C(=C\c1cnccc1Sc1ccccn1)c1c[nH]c2ccc(Cl)cc12 [Example 30, (Z)-2-(5-chloro-1H-indol-3-yl)-3-(4-(pyridin-2-ylthio)pyridin-3-yl)acrylonitrile] | 
7 | 0.9 µM | N#C/C(=C\c1cc(C#N)ccc1Oc1ccc(F)cc1)c1c[nH]c2ccc(Br)cc12 [Example 37, (Z)-3-(2-(5-bromo-1H-indol-3-yl)-2-cyanovinyl)-4-(4-fluorophenoxy)benzonitrile] | 
8 | 0.3 µM | N#C/C(=C\c1cnccc1-c1cccc(Br)c1)c1c[nH]c2ccc(Br)cc12 [Example 17, (Z)-2-(5-bromo-1H-indol-3-yl)-3-(4-(3-bromophenyl)pyridin-3-yl)acrylonitrile] | 
9 | 0.5 µM | CN(C)c1ccncc1/C=C(\C#N)c1c[nH]c2ccc(Cl)cc12 [Example 6, (Z)-2-(5-chloro-1H-indol-3-yl)-3-(4-(dimethylamino)pyridin-3-yl)acrylonitrile] | 
10 | 0.2 µM | CC(C)Oc1ccncc1/C=C(\C#N)c1c[nH]c2ccc(Br)cc12 [Example 14, (Z)-2-(5-bromo-1H-indol-3-yl)-3-(4-isopropoxypyridin-3-yl)acrylonitrile] | 
11 | 0.09 µM | N#C/C(=C\c1cnccc1Sc1ccc(F)cc1)c1c[nH]c2ccc(Br)cc12 [Example 28, (Z)-2-(5-bromo-1H-indol-3-yl)-3-(4-((4-fluorophenyl)thio)pyridin-3-yl)acrylonitrile] | 
12 | 0.1 µM | N#C/C(=C\c1cnccc1-n1cncn1)c1c[nH]c2ccc(Cl)cc12 [Example 33, (Z)-3-(4-(1H-1,2,4-triazol-1-yl)pyridin-3-yl)-2-(5-chloro-1H-indol-3-yl)acrylonitrile] | 
13 | 0.1 µM | CCOc1ccncc1/C=C(\C#N)c1c[nH]c2ccc(Br)cc12 [Example 13, (Z)-2-(5-bromo-1H-indol-3-yl)-3-(4-ethoxypyridin-3-yl)acrylonitrile] | 
14 | 0.57 µM | COC(=O)CC(=O)n1cc(/C(C#N)=C/c2cnccc2OC)c2cc(Br)ccc21 [Example 59, (Z)-methyl-3-(5-bromo-3-(1-cyano-2-(4-methoxypyridin-3-yl)vinyl)-1H-indol-1-yl)-3-oxopropanoate] | 
15 | 0.5 µM | N#C/C(=C\c1cnccc1-c1ccc(C(F)(F)F)cc1)c1c[nH]c2ccc(Cl)cc12 [Example 26, (Z)-2-(5-chloro-1H-indol-3-yl)-3-(4-(4-(trifluoromethyl)phenyl)pyridin-3-yl)acrylonitrile] | 
16 | 0.4 µM | COc1ccc(Sc2ccncc2/C=C(\C#N)c2c[nH]c3ccc(Br)cc23)cc1OC [Example 21, (Z)-2-(5-bromo-1H-indol-3-yl)-3-(4-((3,4-dimethoxyphenyl)thio)pyridin-3-yl)acrylonitrile] | 
17 | 0.8 µM | CN(C)c1ccncc1/C=C(\C#N)c1c[nH]c2ccc(Cl)cc12 [Example 7, (Z)-2-(5-chloro-1H-indol-3-yl)-3-(4-(dimethylamino)pyridin-3-yl)acrylonitrile, Hydrochloride] | 

The remaining lines, values behind:

Row | Structure (SMILES) | IC50 (read-out: MKIp2 IC50) | IC50 (MKIp2 IC50 (μM))
18 | COc1ccncc1/C=C(\C#N)c1c[nH]c2cc(Br)ccc12 [Example 45, (Z)-2-(6-bromo-1H-indol-3-yl)-3-(4-methoxypyridin-3-yl)acrylonitrile] | 0.2 µM | 
19 | COc1ccc2[nH]cc(C(C#N)=Cc3ccc(OC)nc3)c2c1 [W02010/150211-Example 52, reference compound] |  | 12.6 µM
20 | COc1ccc2[nH]cc(C(C#N)=Cc3cccnc3)c2c1 [W02010/150211-Example 4, reference compound] |  | 4.2 µM
21 | N#C/C(=C\c1cnccc1Sc1ccc(F)cc1)c1c[nH]c2ccc(Cl)cc12 [Example 27, (Z)-2-(5-chloro-1H-indol-3-yl)-3-(4-((4-fluorophenyl)thio)pyridin-3-yl)acrylonitrile] | 0.3 µM | 
22 | CCSc1ccncc1/C=C(\C#N)c1c[nH]c2ccc(Br)cc12 [Example 16, (Z)-2-(5-bromo-1H-indol-3-yl)-3-(4-(ethylthio)pyridin-3-yl)acrylonitrile] | 0.3 µM | 
23 | COc1ccc2[nH]cc(C(C#N)=Cc3cnccc3C)c2c1 [W02010/150211-Example 31, reference compound] |  | 2.3 µM
24 | CCOc1ccc2[nH]cc(C(C#N)=Cc3cccnc3)c2c1 [W02010/150211-Example 22, reference compound] |  | 5.2 µM
25 | N#C/C(=C\c1cnccc1SCc1ccccc1)c1c[nH]c2ccc(Br)cc12 [Example 20, (Z)-3-(4-(benzylthio)pyridin-3-yl)-2-(5-bromo-1H-indol-3-yl)acrylonitrile] | 0.2 µM | 
26 | CC(C)Oc1ccc2[nH]cc(C(C#N)=Cc3cccnc3)c2c1 [W02010/150211-Example 23, reference compound] |  | 5.2 µM
27 | N#CC(=Cc1cccnc1)c1c[nH]c2ccc(Cl)cc12 [W02010/150211-Example 24, reference compound] |  | 1.1 µM
28 | CCSc1ccc(C#N)cc1/C=C(\C#N)c1c[nH]c2ccc(Cl)cc12 [Example 42, (Z)-3-(2-(5-chloro-1H-indol-3-yl)-2-cyanovinyl)-4-(ethylthio)benzonitrile] | 0.6 µM | 
29 | N#C/C(=C\c1cnccc1Oc1ccccc1)c1c[nH]c2ccc(Br)cc12 [Example 11, (Z)-2-(5-bromo-1H-indol-3-yl)-3-(4-phenoxypyridin-3-yl)acrylonitrile] | 0.5 µM | 
30 | COc1ccncc1/C=C(\C#N)c1cn(C(=O)OCCN2CCN(C)CC2)c2ccc(Br)cc12 [Example 62, (Z)-2-(4-methylpiperazin-1-yl)ethyl 5-bromo-3-(1-cyano-2-(4-methoxypyridin-3-yl)vinyl)-1H-indole-1-carboxylate] | 0.35 µM | 
31 | COc1ccc2[nH]cc(C(C#N)=Cc3cccc(C#N)c3)c2c1 [W02010/150211-Example 30, reference compound] |  | 4.4 µM
32 | COc1ccc2[nH]cc(C(C#N)=Cc3cnccc3Cl)c2c1 [W02010/150211-Example 47, reference compound] |  | 1.6 µM
33 | COc1ccncc1/C=C(\C#N)c1c[nH]c2ccc(Cl)cc12 [Example 35, (Z)-2-(5-chloro-1H-indol-3-yl)-3-(4-methoxypyridin-3-yl)acrylonitrile, Hydrochloride] | < 0.07 µM | 
34 | CCOc1ccncc1/C=C(\C#N)c1c[nH]c2ccc(OC)cc12 [Example 2, (Z)-3-(4-ethoxypyridin-3-yl)-2-(5-methoxy-1H-indol-3-yl)acrylonitrile] | 0.3 µM | 
35 | COc1ccc2[nH]cc(C(C#N)=Cc3ccc(F)nc3)c2c1 [W02010/150211-Example 28, reference compound] |  | 2.4 µM
